US20250152585A1, “PHARMACEUTICAL COMPOUND” (Duke Street Bio Limited, priority 2022, published 2025)
Read-outs that look alike come from different tables or passages of the source.

Tests used:
[1] = molecular target: T1, N-terminally FLAG-tagged PARP2 (amino acids 1-583) (Homo sapiens, UniProt Q9UGN5); assay: PARP2 probe displacement HTRF assay; assay type: binding; details: binned Kd
T1 construct: N-terminally FLAG-tagged PARP2 (amino acids 1-583)
Procedure: Data analysis was performed identical as for PARP1.

[2] = molecular target: T2, full length N-terminally FLAG-tagged PARP1 (Homo sapiens, UniProt P09874); assay: PARP1 probe displacement HTRF assay; details: for Selectivity: PARP1 over PARP2, ratio Kd (PARP2)/Kd (PARP1); for Kd: binned Kd
[3] = molecular target: T2, full length N-terminally FLAG-tagged PARP1; assay: PARP1 biochemical DELFIA assay (auto-PARylation); design: recombinant full length human N-terminally FLAG-tagged PARP1
[4] = read-out: PARP1 HTRF, probe displacement HTRF
[5] = binned IC50, biochemical auto-PARylation assay
[6] = read-out: PARP1 HTRF, PARP1 probe displacement HTRF
[7] = binned IC50, PARP1 biochemical DELFIA assay

T2 sequence (P09874 whole entry): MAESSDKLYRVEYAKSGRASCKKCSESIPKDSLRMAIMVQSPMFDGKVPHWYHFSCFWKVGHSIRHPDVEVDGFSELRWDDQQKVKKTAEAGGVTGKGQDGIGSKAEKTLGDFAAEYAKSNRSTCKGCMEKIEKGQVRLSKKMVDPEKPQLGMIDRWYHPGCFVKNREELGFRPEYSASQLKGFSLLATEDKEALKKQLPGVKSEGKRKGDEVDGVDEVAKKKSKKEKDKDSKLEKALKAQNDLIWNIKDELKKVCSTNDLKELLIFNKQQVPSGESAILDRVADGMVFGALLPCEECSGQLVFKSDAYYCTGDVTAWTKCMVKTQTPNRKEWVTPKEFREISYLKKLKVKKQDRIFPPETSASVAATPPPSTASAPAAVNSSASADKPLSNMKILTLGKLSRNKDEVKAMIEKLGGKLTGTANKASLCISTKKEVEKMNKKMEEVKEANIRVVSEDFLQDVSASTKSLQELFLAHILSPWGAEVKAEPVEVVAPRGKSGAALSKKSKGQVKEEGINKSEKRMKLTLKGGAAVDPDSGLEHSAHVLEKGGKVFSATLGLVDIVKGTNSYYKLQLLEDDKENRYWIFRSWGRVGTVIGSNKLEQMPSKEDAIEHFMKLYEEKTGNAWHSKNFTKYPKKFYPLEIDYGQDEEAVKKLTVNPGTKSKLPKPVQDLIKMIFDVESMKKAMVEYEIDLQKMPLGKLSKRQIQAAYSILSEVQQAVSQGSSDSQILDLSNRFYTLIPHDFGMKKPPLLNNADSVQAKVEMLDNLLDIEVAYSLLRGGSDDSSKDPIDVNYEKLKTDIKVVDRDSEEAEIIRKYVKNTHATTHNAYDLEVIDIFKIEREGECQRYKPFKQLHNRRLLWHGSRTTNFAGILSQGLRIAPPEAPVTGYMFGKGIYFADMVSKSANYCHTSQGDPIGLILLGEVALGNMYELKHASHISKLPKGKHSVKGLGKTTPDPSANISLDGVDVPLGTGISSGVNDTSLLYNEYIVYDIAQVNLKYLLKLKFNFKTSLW
T1 sequence (Q9UGN5 whole entry, the tested form may be a part): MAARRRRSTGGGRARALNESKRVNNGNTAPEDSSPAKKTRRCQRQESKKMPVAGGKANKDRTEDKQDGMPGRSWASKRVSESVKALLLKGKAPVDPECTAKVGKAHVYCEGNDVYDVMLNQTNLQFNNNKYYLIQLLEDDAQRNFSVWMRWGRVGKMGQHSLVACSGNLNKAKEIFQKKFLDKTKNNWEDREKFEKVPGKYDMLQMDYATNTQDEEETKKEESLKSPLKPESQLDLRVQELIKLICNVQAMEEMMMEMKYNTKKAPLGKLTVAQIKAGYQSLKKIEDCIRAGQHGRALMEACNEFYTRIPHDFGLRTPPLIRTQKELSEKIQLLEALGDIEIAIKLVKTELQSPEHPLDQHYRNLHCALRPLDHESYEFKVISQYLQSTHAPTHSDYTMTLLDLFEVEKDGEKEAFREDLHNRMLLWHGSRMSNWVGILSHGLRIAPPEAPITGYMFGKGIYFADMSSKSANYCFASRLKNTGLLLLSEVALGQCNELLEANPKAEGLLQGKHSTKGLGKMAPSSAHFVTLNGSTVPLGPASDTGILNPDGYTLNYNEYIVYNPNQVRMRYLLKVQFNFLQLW

SMILES | Kd ([1]; probe displacement HTRF) | Selectivity ([2]; probe displacement HTRF) | Kd [2, 4] | IC50 [3, 5] | Kd ([1]; PARP2 probe displacement HTRF) | Kd [2, 6] | IC50 [3, 7] | Kd ([2]; PARP1 HTRF, probe displacement HTRF) | Kd ([2]; PARP1 HTRF, PARP1 probe displacement HTRF)
CNC(=O)c1ccc(N2CCC(N3CCC(c4cc5cccc(F)c5c(=O)[nH]4)C3)CC2)c(F)c1 (single isomer, unassigned) [Compound 371a] | 10 to 100 nM | +++ (+++ indicate a value of at least 100) | < 10 nM | < 10 nM |  |  |  |  | 
CCc1ccc(C2CCN(C3CCN(c4ccc(C#N)cc4Cl)CC3)C2)[nH]c1=O (single isomer, unassigned) [Compound 377b] | 1000 to 10000 nM | +++ (+++ indicate a value of at least 100) | < 10 nM | < 10 nM |  |  |  |  | 
CNC(=O)c1ccc(N2CCC(N3CCCC(c4nc5onc(C)c5c(=O)[nH]4)C3)CC2)cn1 (single isomer, unassigned) [Compound 159b] |  | + (+ indicates a value of 10 to less than 50) |  |  | > 10000 nM | 100 to 1000 nM | 100 to 1000 nM |  | 
CNC(=O)c1ccc(N2CCC(N3CCOC(c4nc5ccccc5c(=O)[nH]4)C3)CC2)cn1 (single isomer, unassigned) [Compound 58a] |  | +++ (+++ indicate a value of at least 100) |  |  | > 10000 nM | < 10 nM | < 10 nM |  | 
CNC(=O)c1ccc(N2CCC(N3CCCC(c4ncc(CC(F)(F)F)c(=O)[nH]4)C3)CC2)cn1 (single isomer, unassigned) [Compound 212b] |  | − (− indicates a value of less than 10) |  |  | > 10000 nM | > 10000 nM | > 10000 nM |  | 
CNC(=O)c1ccc(N2CCC(N3CCCC(O)(c4nc5ccccc5c(=O)[nH]4)C3)CC2)cn1 (single isomer, unassigned) [Compound 327b] | > 10000 nM | − (− indicates a value of less than 10) | 100 to 1000 nM | 100 to 1000 nM |  |  |  |  | 
O=C(NCC(F)F)c1ccc(N2CCC(N3CCC(c4cc5cccc(F)c5c(=O)[nH]4)C3)CC2)c(F)n1 (single isomer, unassigned) [Compound 390b] | 10 to 100 nM | ++ (++ indicates a value of 50 to less than 100) | < 10 nM | < 10 nM |  |  |  |  | 
CNC(=O)c1ccc(N2CCC(N3CCC(c4cc5ccc(F)cc5c(=O)[nH]4)C3)CC2)nn1 (single isomer, unassigned) [Compound 197b] |  | +++ (+++ indicate a value of at least 100) |  |  | 1000 to 10000 nM | 10 to 100 nM | 10 to 100 nM |  | 
CNC(=O)c1ncc(N2CCC(N3CCC(c4cc5ccc(F)cc5c(=O)[nH]4)C3)CC2)cc1F (single isomer, unassigned) [Compound 395a] | 100 to 1000 nM | + (+ indicates a value of 10 to less than 50) | < 10 nM | < 10 nM |  |  |  |  | 
O=C(NC1CC1)c1ccc(N2CCC(N3CCC(c4cc5ncc(F)cc5c(=O)[nH]4)C3)CC2)cn1 (single isomer, unassigned) [Compound 372a] | 100 to 1000 nM | + (+ indicates a value of 10 to less than 50) | < 10 nM | < 10 nM |  |  |  |  | 
CNC(=O)c1ccc(N2CCC(N3CC4(c5nc6c(c(=O)[nH]5)CCCN6C)CC3C4)CC2)c(F)n1 [Compound 375, 6-fluoro-N-methyl-5-(4-(4-(8-methyl-4-oxo-3,4,5,6,7,8-hexahydropyrido[2,3-d]pyrimidin-2-yl)-2-azabicyclo[2.1.1]hexan-2-yl)piperidin-1-yl)picolinamide] | 100 to 1000 nM | + (+ indicates a value of 10 to less than 50) |  | < 10 nM |  |  |  | < 10 nM | 
CCc1ccc(C2CCN(C3CCN(c4cnc(C(=O)NC)nc4C(F)(F)F)CC3)C2)[nH]c1=O (racemic) [Compound 278rac] | > 10000 nM | +++ (+++ indicate a value of at least 100) | 10 to 100 nM | 10 to 100 nM |  |  |  |  | 
CNC(=O)c1ccc(N2CCC(N3CCCC(c4nc5ccccc5c(=O)[nH]4)C3)CC2)cn1 (single isomer, unassigned) [Compound 6a, N-methyl-5-(3-(4-oxo-3,4-dihydroquinazolin-2-yl)-[1,4′-bipiperidin]-1′-yl)picolinamide] |  | +++ (+++ indicate a value of at least 100) |  |  | > 10000 nM |  | < 10 nM |  | < 10 nM
CNC(=O)c1ccc(N2CCC(N3CCCC(c4nc5onc(C)c5c(=O)[nH]4)C3)CC2)cn1 (single isomer, unassigned) [Compound 159a] |  | − (− indicates a value of less than 10) |  |  | > 10000 nM | > 10000 nM | > 10000 nM |  | 
CNC(=O)c1ccc(N2CCC(N3CCC(O)(c4nc5ccccc5c(=O)[nH]4)C3)CC2)cn1 (single isomer, unassigned) [Compound 140a] |  | ++ (++ indicates a value of 50 to less than 100) |  |  | > 10000 nM | 10 to 100 nM | 100 to 1000 nM |  | 
CNC(=O)c1ccc(N2CCC(N3CCC(c4ncc(C)c(=O)[nH]4)C3)CC2)cn1 (single isomer, unassigned) [Compound 35b] |  | +++ (+++ indicate a value of at least 100) |  |  | > 10000 nM | 10 to 100 nM | 10 to 100 nM |  | 
CNC(=O)c1ccc(N2CCC(N3CCC(c4ncc(C(F)(F)F)c(=O)[nH]4)C3)CC2)cn1 (single isomer, unassigned) [Compound 56b] |  | − (− indicates a value of less than 10) |  |  | > 10000 nM | 100 to 1000 nM | 1000 to 10000 nM |  | 
N#Cc1ccc(N2CCC(N3CCC(c4cc5ccc(F)cc5c(=O)[nH]4)C3)CC2)c(Cl)c1 (single isomer, unassigned) [Compound 386b] | 1000 to 10000 nM | +++ (+++ indicate a value of at least 100) | < 10 nM | < 10 nM |  |  |  |  | 
CNC(=O)c1ccc(N2CCC(N3CCC(c4nc5onc(C)c5c(=O)[nH]4)C3)CC2)cn1 (single isomer, unassigned) [Compound 149b] |  | − (− indicates a value of less than 10) |  |  | > 10000 nM | 1000 to 10000 nM | 1000 to 10000 nM |  | 
CCc1ccc(C2CCN(C3CCN(c4cnc(C(=O)NC)cc4C(F)(F)F)CC3)C2)[nH]c1=O (single isomer, unassigned) [Compound 298a] | > 10000 nM | − (− indicates a value of less than 10) | 1000 to 10000 nM | 1000 to 10000 nM |  |  |  |  | 
CS(=O)(=O)NC(=O)c1ccc(N2CCC(N3CCC(c4cc5ccccc5c(=O)[nH]4)C3)CC2)cc1 (single isomer, unassigned) [Compound 342a] | 100 to 1000 nM | − (− indicates a value of less than 10) | 100 to 1000 nM | 100 to 1000 nM |  |  |  |  | 
CCc1ccc(C2CCN(C3CCN(c4ccc(C(N)=O)nc4)CC3)C2)[nH]c1=O (racemic) [Compound 166rac] |  | +++ (+++ indicate a value of at least 100) |  |  | 1000 to 10000 nM | < 10 nM | < 10 nM |  | 
O=c1[nH]c(C2CCN(C3CCN(c4ccc(F)cc4F)CC3)C2)nc2ccccc12 (single isomer, unassigned) [Compound 107a] |  | + (+ indicates a value of 10 to less than 50) |  |  | 1000 to 10000 nM | 10 to 100 nM | 10 to 100 nM |  | 
CNC(=O)c1ccc(N2CCC(N3CCCC(c4nc5sc6c(c5c(=O)[nH]4)CCC6)C3)CC2)cn1 (single isomer, unassigned) [Compound 185b] |  | + (+ indicates a value of 10 to less than 50) |  |  | 1000 to 10000 nM | 100 to 1000 nM | 10 to 100 nM |  | 
CNC(=O)c1ccc(N2CCC(N3CCCC(c4nc5cc(F)ccc5c(=O)[nH]4)C3)CC2)cn1 (single isomer, unassigned) [Compound 108a] |  | − (− indicates a value of less than 10) |  |  | > 10000 nM | 100 to 1000 nM | 100 to 1000 nM |  | 
CNC(=O)c1ccc(N2CCC(N3CCCC(c4nc5cnccc5c(=O)[nH]4)C3)CC2)cn1 (single isomer, unassigned) [Compound 106b] |  | − (− indicates a value of less than 10) |  |  | > 10000 nM | > 10000 nM | 1000 to 10000 nM |  | 
